Measurements: patent US20080220056A1, “Treatment for liver disease” (UNIVERSITY OF SOUTHAMPTON, priority 2002, published 2008)

Key:
[1] = system: NFκB responsive gene promoters; assay: NFκB responsive gene promoter activity; assay type: cell-based; conditions: 24 hours, versus untreated cells
[2] = system: NFκB DNA binding activity; assay: Electromobility shift assay, sulfasalazine-treated hepatic stellate cells; assay type: cell-based; conditions: day 7 HSC; 0.5, 1 and 2 mM for 24 hours
caspase 3 activity = assay: Caspase 3 activity, sulfasalazine-treated hepatic stellate cells; assay type: cell-based; conditions: 0.5, 1 or 2 mM
Experimental: (§1) Treatment of activated hepatic stellate cells with Sulfasalazine (at a concentration of 0.5, 1 or 2 mM) for 24 hours induced a dose-dependent increase in apoptosis visualised by both Acridine Orange staining (30%, 45% and 55% respectively).

[3] = system: activated hepatic stellate cells; assay: Apoptosis of activated hepatic stellate cells by acridine orange, sulfasalazine; assay type: cell-based; conditions: 24 hours
Experimental: as §1

[4] = system: experimentally induced fibrosis; assay: Recovery from carbon tetrachloride induced fibrosis in rats, sulfasalazine; assay type: in vivo, rat
Experimental: Adult male Sprague Dawley rats were treated twice weekly for six weeks by intraperitoneal injection of the hepatotoxin carbon tetrachloride and then allowed to recover for 24 hours prior to treatment with either vehicle control or sulfasalazine. Animals were then left to recover for either a further 16 or 72 hours.

[5] = system: rat hepatic stellate cells; assay: Low molecular weight DNA fragmentation (nucleosomal ladder) in rat hepatic stellate cells; assay type: cell-based
Experimental: Hepatic stellate cells cultured in 35-mm diameter dishes (Greiner) were harvested, pelleted by centrifugation and DNA fragmentation determined as outlined elsewhere (Elsharkawy et al., Hepatology (1999) 30:761-769). Propidium Iodide Flow-Activated Cell Sorting Analysis Detached cells were pelleted by centrifugation, washed in PBS, and resuspended in HYPO buffer (0.1% wt/vol) Na3Citrate and 0.1% (wt/vol) Triton™ X-100 containing […] propidium iodide and incubated for 1 hour. The cells were then analyzed by fluorescence-activated cell sorter (FACS) with a Becton Dickinson (San Jose, Calif.) FACScan instrument using a 488 nm excitation wavelength with a band pass filter set at 530 nm. Attached cells were scraped in HYPO buffer after washing cells with PBS.
The effect of gliotoxin on the cleavage of DNA to a nucleosomal ladder was examined because this phenomenon is characteristic of apoptosis. Culture activated (14-day) rat hepatic stellate cells in six well plates were treated with either 0.05% (vol/vol) DMSO for four hours or 1.5 μmol/L gliotoxin for zero hours, half an hour, one hour, two hours or four hours. At each time point, both detached and attached cells were harvested together and low molecular weight DNA (20,000 g supernatant) fragmentation determined as outlined in the materials and methods section. At least three separate experiments were performed. 1 kilobase DNA ladder (Promega) was used as a molecular weight marker.
The effect of various compounds on DNA laddering was then determined. Culture-activated (14-day) rat hepatic stellate cells in six-well plates were treated with:
After fours hours of treatment, DNA fragmentation was determined.
Culture activated (14 day) rat hepatic stellate cells in six well plates were treated with: • (a) 0.05% (vol/vol) DMSO; • (b) 1.5 μmol/L gliotoxin; • (c) 1.5 μmol/L gliotoxin with 100 μmol/L tamoxifen; • (d) 1.5 μmol/L gliotoxin with […] actinomycin d; • (e) 1.5 μmol/L gliotoxin with 10 μmol/L cycloheximide; • (f) 1.5 μmol/L gliotoxin with 10 μmol/L cyclosporin; • (g) 1.5 μmol/L gliotoxin with […] m-iodobenzylguanidine; • (h) 1.5 μmol/L gliotoxin with 50 μmol/L quin-2-am; • (i) 50 μmol/L guin-2-am alone; • (j) 250 μmol/L m-iodobenzylguanidine; • (k) 10 μmol/L cyclosporin; • (l) 10 μmol/L cycloheximide; • (m) 1 μg/ml actinomycin d; or • (n) 100 μmol/L tamoxifen.
After four hours of treatment, DNA fragmentation was determined as outlined in Materials and Methods.

[6] = system: human hepatic stellate cells; assay: Morphology of culture-activated human hepatic stellate cells (light microscopy); assay type: cell-based
Excerpt: (§2) Rat hepatic stellate cells (HSCs) were isolated by pronase/collagenase perfusion and purified by isopycnic density centrifugation in Opti-prep™ (Nycomed, Amersham, England) and elutriation essentially as previously described (Bahr et al., Hepatology (1999) 29:839-848). Human hepatic stellate cells were isolated from discarded resected liver via a similar protocol (Trim et al., J. Biol. Chem., (2000) 275:6657-6663). The use of human liver tissue for scientific investigation was approved by the UK South and West Local Research Ethics Committee and was subject to patient consent.
(§3) It has been shown recently that liver myofibroblasts may contribute to liver fibrogenesis and that liver myofibroblasts may have the potential to contaminate passaged hepatic stellate cell cultures (Knittel et al., Gastronenterology, (1999) 117:1205-1221). In this study, only primary cultures of hepatic stellate cells were used, which were desmin and glial fibrillary acid protein positive (markers shown to be expressed in hepatic stellate cells, but not liver myofibroblasts—Knittel et al., supra).
Cells were treated with gliotoxin dissolved in DMSO vehicle (added to medium from a 2000-fold molar concentrated stock). Control cells received DMSO vehicle only (i.e., 0.05% vol/vol). […] Protein contents of wells were determined using the Lowry assay (Lowry et al., J. Biol. Chem., (1951)193: 265-275). […]

[7] = system: rat hepatic stellate cells; assay: Morphology and detachment of culture-activated rat hepatic stellate cells (light microscopy); assay type: cell-based
Excerpt: as §2, §3
Cells were treated with gliotoxin dissolved in DMSO vehicle (added to medium from a 2000-fold molar concentrated stock). Control cells received DMSO vehicle only (i.e., 0.05% vol/vol). All other additions to culture medium were made from concentrated stocks dissolved in DMSO or by direct addition to culture medium. Protein contents of wells were determined using the Lowry assay (Lowry et al., J. Biol. Chem., (1951)193: 265-275).
Culture activated rat (14 day) and human (24 day) hepatic stellate cells were treated with DMSO solvent control or 1.5 μMol/L gliotoxin. […] Hepatic stellate cells changed from a flattened fibroblastic phenotype with distinct cell-cell interfaces to a substratum detached, rounded, and blebbed morphology.

hepatic stellate cells = assay: Nerve growth factor induced apoptosis of hepatic stellate cells; assay type: cell-based; conditions: NGF 100 ng/ml, absolute serum deprivation
Experimental: Apoptosis of hepatic stellate cells was induced by absolute serum deprivation, cycloheximide treatment (Issa et al., Gut (2001) 48: S48-S57), or exposure to nerve growth factor as previously described (Trim et al., Am. J. Pathol., (2000) 156, 1235-1243). Hepatic stellate cells were cultured in 24-well tissue culture plates. Rat and human hepatic stellate cells were exposed to proapoptotic stimuli with and without recombinant TIMP-1 (Biogenesis, Poole, UK) and other manipulations as detailed below. Following a 4 hour incubation at 37° C., nuclear morphology was assessed by adding acridine orange to each well (final concentration 1 μg/ml) and observing the cells under blue fluorescence. The total number of apoptotic bodies was counted, and any apoptotic bodies floating in the supernatant were included by racking up the objective lens. The total number of cells per field was counted, and an apoptotic index was calculated. Each condition was performed in duplicate, and three high power fields were counted for each well. […] To examine for autocrine effects, hepatic stellate cells were incubated for 18 hours with azide-free polyclonal neutralizing antibodies to TIMP-1 and a nonimmune IgG control (Santa Cruz Biotechnology, Inc., Santa Cruz, Calif.), and responses were assessed by acridine orange staining and counting. […]

[8] = system: caspase-3 activity in hepatic stellate cells; assay: Caspase-3 activity in cycloheximide-treated hepatic stellate cells; assay type: cell-based; conditions: wild type TIMP-1 or T2G mutant N-TIMP-1
Experimental: Apoptosis was quantified by a colorimetric assay for caspase-3 activity (Promega) according to the manufacturer's instructions.
Caspase-3 is a central caspase in the proapoptotic cascade (Hengartner, Nature (2000) 407, 770-776) and can be used as an alternative assay to assess apoptosis. Hepatic stellate cells were cultured in 50 μM cycloheximide with TIMP-1 at a concentration of 0, 1, 10, or 100 ng/ml. Controls where cells were incubated with either the caspase 3 inhibitor benzyloxycarbonyl-Val-Ala-Asp-fluoromethylketone or serum alone were also performed. Data are expressed as mean ±S.E. and are presented as percentage of control given the arbitrary value of 100%. * indicates p<0.001; n=3. […] Although the mean caspase-3 activity of the cells treated with 10 ng/ml TIMP-1 was slightly lower than that treated with 100 ng/ml of TIMP-1, this was not statistically significant (p=0.67 by Student's t test).

[9] = system: human hepatic stellate cells; assay: Hepatic stellate cell apoptosis by acridine orange staining and counting (cycloheximide or serum deprivation), human cells; assay type: cell-based; conditions: human HSC; protein at 142.5 ng/ml
Experimental: (§4) Human hepatic stellate cells were extracted from the margins of normal human liver resected for colonic metastatic disease as previously described (Iredale et al., Clin. Sci., (1995) 89: 75-81). Rat hepatic stellate cells were extracted from normal rat liver by Pronase and collagenase digestion and purified by centrifugal elutriation as described (Arthur et al., J. Clin. Invest., (1989) 84:1076-1085). Extracted hepatic stellate cells were cultured on plastic until they were activated to a myofibroblastic phenotype after 7 to 10 days. Human and rat hepatic stellate cells were used for experiments after activation in primary culture or before fourth passage. Cells were cultured in Dulbecco's modified Eagle's medium in the presence of 16% fetal calf serum and antibiotics.
Apoptosis of hepatic stellate cells was induced by absolute serum deprivation, cycloheximide treatment (Issa et al., Gut (2001) 48: S48-S57), or exposure to nerve growth factor as previously described (Trim et al., Am. J. Pathol., (2000) 156, 1235-1243). Hepatic stellate cells were cultured in 24-well tissue culture plates. […] Following a 4 hour incubation at 37° C., nuclear morphology was assessed by adding acridine orange to each well (final concentration 1 μg/ml) and observing the cells under blue fluorescence. The total number of apoptotic bodies was counted, and any apoptotic bodies floating in the supernatant were included by racking up the objective lens. The total number of cells per field was counted, and an apoptotic index was calculated. Each condition was performed in duplicate, and three high power fields were counted for each well. […] To examine for autocrine effects, hepatic stellate cells were incubated for 18 hours with azide-free polyclonal neutralizing antibodies to TIMP-1 and a nonimmune IgG control (Santa Cruz Biotechnology, Inc., Santa Cruz, Calif.), and responses were assessed by acridine orange staining and counting.
Apoptosis was assessed by acridine orange staining. […]

MMP-3 = MMP-3 (Homo sapiens, UniProt P08254); conditions: T2G versus wild type; cited from earlier work
[10] = system: rat hepatic stellate cells; assay: Hepatic stellate cell apoptosis by acridine orange staining and counting (cycloheximide or serum deprivation), rat cells; assay type: cell-based; conditions: rat HSC; protein at 142.5 ng/ml
Experimental: as §4
Apoptosis of hepatic stellate cells was induced by absolute serum deprivation, cycloheximide treatment (Issa et al., Gut (2001) 48: S48-S57), or exposure to nerve growth factor as previously described (Trim et al., Am. J. Pathol., (2000) 156, 1235-1243). Hepatic stellate cells were cultured in 24-well tissue culture plates. Rat and human hepatic stellate cells were exposed to proapoptotic stimuli with and without recombinant TIMP-1 (Biogenesis, Poole, UK) and other manipulations as detailed below. Following a 4 hour incubation at 37° C., nuclear morphology was assessed by adding acridine orange to each well (final concentration 1 μg/ml) and observing the cells under blue fluorescence. The total number of apoptotic bodies was counted, and any apoptotic bodies floating in the supernatant were included by racking up the objective lens. The total number of cells per field was counted, and an apoptotic index was calculated. Each condition was performed in duplicate, and three high power fields were counted for each well. […] To examine for autocrine effects, hepatic stellate cells were incubated for 18 hours with azide-free polyclonal neutralizing antibodies to TIMP-1 and a nonimmune IgG control (Santa Cruz Biotechnology, Inc., Santa Cruz, Calif.), and responses were assessed by acridine orange staining and counting.
Apoptosis was assessed by acridine orange staining. […] A normal cell lies adjacent to the apoptotic body. This technique was used to determine the percentage of apoptotic hepatic stellate cells following exposure to cyclohexamide in the presence or absence of TIMP-1. Hepatic stellate cells were exposed to 50 μM cyclohexamide and 0, 1, 10, 100 or 200 ng/ml of TIMP-1. Cells treated with serum alone were used as controls. […] Bovine serum albumin, used as a carrier for the TIMP-1 had no antiapoptotic effect.

MMP-3, sequence (P08254 100-477, species assumed): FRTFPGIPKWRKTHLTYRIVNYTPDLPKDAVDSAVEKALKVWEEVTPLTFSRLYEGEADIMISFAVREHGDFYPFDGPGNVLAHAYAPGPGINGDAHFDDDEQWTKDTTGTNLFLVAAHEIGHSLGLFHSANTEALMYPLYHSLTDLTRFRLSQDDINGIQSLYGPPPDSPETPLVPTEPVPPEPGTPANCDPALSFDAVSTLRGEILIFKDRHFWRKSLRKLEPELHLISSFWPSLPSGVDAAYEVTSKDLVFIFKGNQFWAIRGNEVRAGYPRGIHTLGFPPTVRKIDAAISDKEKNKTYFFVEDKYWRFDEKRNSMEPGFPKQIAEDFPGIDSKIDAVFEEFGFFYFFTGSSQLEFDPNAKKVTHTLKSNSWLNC

O=C(O)c1cc(/N=N/c2ccc(S(=O)(=O)Nc3ccccn3)cc2)ccc1O [Sulfasalazine]
activity of NFκB responsive gene promoters (PGJ21 (4xNFκB), IL6 and IκBα) [1]: repressed the activity of three NFκB responsive gene promoters
activity of control 7×AP1 promoter [1]: but not a control 7×AP1 promoter
NFκB DNA binding activity [2]: dose dependently inhibited NFκB DNA binding activity
caspase 3 activity (caspase 3 activity): increased caspase 3 activity in a dose-dependent manner
apoptosis by Acridine Orange staining ([3]; 0.5 mM): 30%
apoptosis by Acridine Orange staining ([3]; 1 mM): 45%
apoptosis by Acridine Orange staining ([3]; 2 mM): 55%
collagen deposition (fibrosis) versus control livers ([4]; six weeks CCl4, 16 hours recovery): no significant difference in collagen deposition
collagen versus control livers ([4]; six weeks CCl4, 72 hours recovery): significantly less collagen
fibrosis score (1-4; 1 no fibrosis, 4 cirrhosis) ([4]; six weeks CCl4, 72 hours recovery, control livers 3): 1.5
numbers of activated hepatic stellate cells versus control livers ([4]; six weeks CCl4, treatment 24 hours later, 16 hours recovery): large reduction in numbers of activated hepatic stellate cells

CS[C@]1(CO)C(=O)N2[C@H]3C(=CC=C[C@@H]3O)C[C@@]2(SC)C(=O)N1C [mt-glio, bis-dethio-bis(methylthio)-gliotoxin]
cleavage of DNA to a nucleosomal ladder ([5]; rat HSC, 1.5 μmol/L, up to four hours): did not result in the cleavage of DNA to a nucleosomal ladder
morphologic alterations ([6]; culture activated (24 day) human HSC, 1.5 μmol/L): had no effect on the morphology
morphologic alterations ([7]; culture activated (14 day) rat HSC, 1.5 μmol/L): had no effect on the morphology

S=C(S)N1CCCC1 [pyrrolidine dithiocarbamate]
effect on gliotoxin-induced cleavage of DNA to a nucleosomal ladder ([5]; with 1.5 μmol/L gliotoxin, four hours, PDTC 300 μmol/L, tamoxifen 100 μmol/L, m-IBG 250 (mmol/L in the source), cyclosporin 10 μmol/L, quin-2-am 50 μmol/L): blocks the cleavage of DNA to a nucleosomal ladder
effect on morphologic effects of gliotoxin ([6]; human HSC, cotreatment with gliotoxin): blocked the morphologic effects of gliotoxin
effect on morphologic alterations / detachment caused by gliotoxin ([7]; rat HSC, with 1.5 μmol/L gliotoxin, Z-VAD-FMK 100 μmol/L, PDTC 300 μmol/L, tamoxifen 100 μmol/L, m-IBG 250 (mmol/L in the source), quin-2-am 50 μmol/L): blocked the morphologic effects of gliotoxin

NGF: nerve growth factor, ligand of p75 on hepatic stellate cells
apoptosis in hepatic stellate cells versus BSA carrier alone (hepatic stellate cells): induced significantly more apoptosis

T2G mutant N-TIMP-1: mutated nonfunctional TIMP-1, threonine to glycine at amino acid position 2, no MMP inhibitory activity
caspase-3 activity in cycloheximide-treated hepatic stellate cells [8]: no effect was observed
apoptosis induced by cycloheximide (acridine orange) [9]: had no inhibitory effect
factor by which the mutation changes the inhibition constant of TIMP-1 for MMP-3 (MMP-3): over 1000
apoptosis induced by cycloheximide (acridine orange) [10]: had no inhibitory effect
